Data taken from patent US6773627B2, “Cubic liquid crystalline compositions and methods for their preparation” (Children's Hospital Research Foundation, priority 2000, dated 2004).
“Also recorded” adds a separate entry of the source.

Test: Determination of hydrotrope utility (polarized light microscopy and rheology of compound/water/monoolein compositions)
Assay type: physicochemical
Settings: for Formation of cubic phase in equilibrium with liquid water: system of compound, monoolein and water
From the text: Whether a compound is suitable to use as ingredient (A) can be determined by one skilled in the art without undue experimentation. The determination can be made by preparing a composition comprising the compound to be tested for use as the hydrotrope, the selected amphiphile, and the selected solvent and allowing the composition to equilibrate, for example, by the method described below in Reference Example 1. If the composition forms a cubic phase or cubic phase in combination with another phase, then the hydrotrope is suitable to use in this invention. If the composition forms a cubic phase or cubic phase in combination with an isotropic liquid, then the hydrotrope is preferred.
Polarized light microscopy (PLM) can be used to determine whether the composition formed cubic phase. PLM can be carried out on a polarized light microscope or constructed light box, as described by Laughlin, R. G., J. Colloid Interface Sci., 55, 239-242 (1976). Polarized light microscope textures define the phase/colloidal state of sample. Lamellar and hexagonal phases give birefringence (see Hecht, E., Optics, 2nd ed., Addison-Wesley Publishing Co., Reading, Mass., pp. 282-289 (1984)) and distinct textures such as Maltese Crosses (see Rosevear, F. B., J. Am. Oil Chemists Soc., 31, 628-638 (1954)). This is a consequence of the anisotropic phase structure of these particular phases, and their orientation relative to polarization of the light. However, L1, L2, L3, and cubic phases show no birefringence and appear dark in the microscope. Birefringence is a function of sample thickness, so sometimes it is difficult to see with a light microscope. Instead, the bulk sample can be placed in the aforementioned light box to secure a very thick sample.
Cubic phases are very viscous while the other phases are (i.e., L1, L2, and L3) are less viscous, like water. Therefore, lack of birefringence in combination with bulk solid-like rheological properties indicates the presence of cubic phase.
A compound for use as a hydrotrope is dissolved in water in amounts to form a hydrotrope solution. The solution is added to monoolein (DIMODAN® MO90K) to yield a composition. The composition is left to equilibrate overnight at a temperature of 25 to 30° C.
PLM can be carried out on a polarized light microscope or constructed light box, as described by Laughlin, R. G., J. Colloid Interface Sci., 55, 239-242 (1976). Rheological properties of the composition are also observed.
Various compounds are evaluated according to Reference Example 1. The compounds, the compositions prepared, and the results are in Table E1, below. FIG. 4 is a ternary diagram 400 showing the data points in Example 3. FIG. 5 is a ternary diagram 500 for 1,2-hexanediol 516, monoolein 517, and water 518. […] FIG. 6 is a ternary diagram 600 for 1,2-hexanediol 613, monoolein 614, and water 615. […] FIG. 7 is a ternary diagram 700 for ethanol 713, monoolein 714, and water 715.

[1] = system with monoolein and water
[2] = compound 10, water 80, amphiphile (monoolein) 10 (κ)

SMILES: CCCCC(O)CO (stereo not shown) [1,2-hexanediol]
- Phase(s) Formed (FIG. 5 point 501, compound 10, water 81, amphiphile (monoolein) 9 (κ)): liquid water and L1
- Phase(s) Formed (FIG. 5 point 502, compound 10, water 71, amphiphile (monoolein) 19 (κ)): L1 and lamellar
- Phase(s) Formed (FIG. 5 point 503, compound 10, water 64, amphiphile (monoolein) 26 (κ)): L1 and lamellar
- Phase(s) Formed (FIG. 5 point 504, compound 12, water 53, amphiphile (monoolein) 35 (κ)): L1 and lamellar
- Phase(s) Formed (FIG. 5 point 505, compound 10, water 45, amphiphile (monoolein) 45 (κ)): L1 and lamellar
- Phase(s) Formed (FIG. 5 point 510, compound 20, water 40, amphiphile (monoolein) 40 (κ)): L1 and lamellar
- Phase(s) Formed (FIG. 6 point 601, compound 6, water 56, amphiphile (monoolein) 38 (κ)): cubic and lamellar
- Phase(s) Formed (FIG. 6 point 602, compound 4, water 58, amphiphile (monoolein) 38 (κ)): cubic and lamellar
- Phase(s) Formed (FIG. 6 point 603, compound 2, water 59, amphiphile (monoolein) 39 (κ)): cubic and lamellar
- Phase(s) Formed (FIG. 6 point 604, compound 6, water 38, amphiphile (monoolein) 56 (κ)): cubic and lamellar
- Phase(s) Formed (FIG. 6 point 605, compound 4, water 39, amphiphile (monoolein) 57 (κ)): cubic and lamellar
- Phase(s) Formed (FIG. 6 point 606, compound 2, water 39, amphiphile (monoolein) 59 (κ)): cubic and lamellar
- Phase(s) Formed (FIG. 6 point 607, compound 6, water 28, amphiphile (monoolein) 66 (κ)): cubic and lamellar
- Phase(s) Formed (FIG. 6 point 608, compound 2, water 29, amphiphile (monoolein) 69 (κ)): cubic and lamellar
- Phase(s) Formed (FIG. 6 point 609, compound 16, water 13, amphiphile (monoolein) 71 (κ)): lamellar
- Phase(s) Formed (FIG. 6 point 610, compound 10, water 14, amphiphile (monoolein) 76 (κ)): lamellar
- Phase(s) Formed (FIG. 6 point 611, compound 5, water 14, amphiphile (monoolein) 81 (κ)): lamellar
- Phase(s) Formed (FIG. 6 point 612, compound 5, water 12, amphiphile (monoolein) 83 (κ)): lamellar
- Formation of cubic phase in equilibrium with liquid water: does not form cubic phase in equilibrium with liquid water
- Suitability as hydrotrope [1]: suitable to use as a hydrotrope

SMILES: OCCCCO [1,4-butanediol]
- Phase(s) Formed [2]: cubic and L1
- Suitability as hydrotrope [1]: effective as hydrotropes

SMILES: CC(C)O [Example 2-propanol, 2-propanol]
- Phase(s) Formed [2]: does not form cubic phase; also recorded: Turbid solution and L1
- Suitability as hydrotrope [1]: not preferred to use as a hydrotrope

SMILES: CCO [ethanol]
- Phase(s) Formed (FIG. 4 point 401, compound 20, water 48, amphiphile (monoolein) 32 (κ)): L1 and lamellar
- Phase(s) Formed (FIG. 4 point 404, compound 9, water 55, amphiphile (monoolein) 36 (κ)): cubic and lamellar
- Phase(s) Formed (FIG. 4 point 405, compound 6, water 56, amphiphile (monoolein) 38 (κ)): cubic and lamellar
- Phase(s) Formed (FIG. 7 point 701, compound 11, water 88, amphiphile (monoolein) 1 (κ)): cubic & isotropic liquid
- Phase(s) Formed (FIG. 7 point 702, compound 10, water 70, amphiphile (monoolein) 20 (κ)): cubic & isotropic liquid
- Phase(s) Formed (FIG. 7 point 703, compound 10, water 59, amphiphile (monoolein) 31 (κ)): cubic & isotropic liquid
- Phase(s) Formed (FIG. 7 point 704, compound 10, water 48, amphiphile (monoolein) 42 (κ)): cubic & isotropic liquid
- Phase(s) Formed (FIG. 7 point 706, compound 20, water 55, amphiphile (monoolein) 25 (κ)): L1 and lamellar
- Phase(s) Formed (FIG. 7 point 707, compound 19, water 49, amphiphile (monoolein) 32 (κ)): L1 and lamellar
- Phase(s) Formed (FIG. 7 point 708, compound 20, water 42, amphiphile (monoolein) 39 (κ)): lamellar
- Phase(s) Formed (FIG. 7 point 709, compound 29, water 60, amphiphile (monoolein) 11 (κ)): L1 and lamellar
- Phase(s) Formed (FIG. 7 point 710, compound 28, water 52, amphiphile (monoolein) 20 (κ)): L1 and lamellar
- Phase(s) Formed (FIG. 7 point 711, compound 30, water 40, amphiphile (monoolein) 30 (κ)): lamellar
- Phase(s) Formed (FIG. 7 point 712, compound 30, water 29, amphiphile (monoolein) 41 (κ)): lamellar
- Formation of cubic phase in equilibrium with liquid water: can be formed
- Suitability as hydrotrope [1]: preferred hydrotrope
- Amount of compound at which it can be used as a hydrotrope (system with monoolein and water, % of the system): less than or equal to 10%

SMILES: CCN(CC)CCOC(=O)c1ccc(N)cc1.Cl [procaine hydrogen chloride, reference compound]
- Phase(s) Formed [2]: cubic and L1
- Suitability as hydrotrope [1]: effective as hydrotropes
